# Laboratory results as given in US20220362401A1, “PARTICLES, METHOD FOR PRODUCING PARTICLES, DRUG, METHOD FOR PRODUCING DRUG, AND ANTI-CANCER AGENT” (THE UNIVERSITY OF KITAKYUSHU, priority 2019, published 2022).
# Tested on: mouse colorectal cancer cell CT26
# Test: Anti-tumor effect in tumor-bearing mice, transition of tumor volume
# Type: in vivo, mice (BALB/c)
# Conditions: i.v. injection, α-mangostin 10 mg/kg, nanoparticles of average particle size 20 nm, FIG. 9
# Description: The anti-tumor effect of the particles of the present invention containing α-mangostin was examined using mice (BALB/c, 7 weeks old, male) that bore the mouse colorectal cancer cell CT26. It was confirmed that the size of the tumor that the mice bore reached 100 mm^3 (7 days after), and a sample was intravenously administered (i. v. injection). The doses of α-mangostin at this time were standardized to 10 mg/kg. The transition of the tumor volume was observed after the administration.
# Nanoparticles: average particle size: 20 nm (produced under the conditions of X (TX100): 0.15 mM and Y (ECH): 2.1 mL of Production Example 5) α-mangostin: Tokyo Chemical Industry Co., Ltd. Buffer solution: phosphate buffer (pH 7.5) nanoparticles containing no α-mangostin: only the nanoparticles (50 mg/mL) α-mangostin solution: α-mangostin solution (1.0 mM) containing 0.4 vol % DMSO, 2 vol % ethanol, and 2 vol TWEEN 80 (surfactant) nanoparticles containing α-mangostin: solution in which α-mangostin was contained in the nanoparticles (nanoparticle concentration: 50 mg/mL, α-mangostin concentration: 1.0 mM) Experimental data (animal experiment using mice)
structure (smiles),measurement,value
"COc1c(O)cc2oc3cc(O)c(CC=C(C)C)c(O)c3c(=O)c2c1CC=C(C)C [MGS, α-mangostin]",effect of suppressing the cancer growth (tumor volume),not observed
